In patent US6924314B2, “Compounds for the treatment of metabolic disorders” (Wellstat Therapeutics Corporation, priority 2001, dated 2005):

Assays:
[1] = tested on: ob/ob obese diabetic mice; assay: Acute hypoglycemic effect in ob/ob obese diabetic mice: Experiment 1; type: in vivo; settings: single oral dose by gavage, 6 hours
Procedure: Male ob/ob diabetic mice were randomized into groups of five animals each. Body weights were 50-55 g and blood glucose was approximately 300 mg/dL in the fed state. A single oral dose of a test substance suspended in 0.5% carboxymethylcellulose vehicle was administered by gavage. Blood glucose was measured in blood droplets obtained by nicking a tail vein with a razor using glucometer test strips and a Glucometer Elite XL device (Bayer) at 0, 0.5, 2, 4, 6 and 18 hours after the initial dosing. A 10% reduction in blood glucose versus oral vehicle is considered a positive screening result. Blood glucose reductions were generally maximal at 6 hours after drug administration.

[2] = tested on: mice with severe insulin-dependent diabetes; assay: Mortality in severe insulin-dependent diabetes (multiple high doses of STZ); type: in vivo; settings: STZ 75 mg/kg i.p. x5 balb/C mice, 30 mg/kg/day oral, after three weeks of daily treatment
Procedure: Female balb/C mice (19 wks of age at start of experiment) were challenged with multiple high doses of STZ (75 mg/kg i.p. on 5 consecutive days). Animals were then divided in two groups (20 mice/group) matched for severity of diabetes. Four days after the last dose of STZ, treatments were initiated. One group received Vehicle (0.4 ml of 0.75% HPMC, p.o.), and the other group received oral COMPOUND AA (30 mg/kg/day). After three weeks of daily treatment, cumulative mortality in the Vehicle Control group was 19/20 mice. In contrast, only 5/20 of the COMPOUND AA mice died during this time.

[3] = tested on: streptozotocin diabetic mice; assay: Serum chemistries and body weights in streptozotocin diabetic mice treated with oral Compound AH for 14 weeks; type: in vivo, Balb/C mice
Procedure: Streptozotocin (STZ) is a toxin that selectively destroys insulin-producing pancreatic beta cells, and is widely used to induce insulin-dependent diabetes in experimental animals.
Female Balb/C mice (8 weeks old; 18-20 grams body weight) were treated with streptozotocin (STZ) (50 mg/kg i.p. on each of five consecutive days). Fourteen days after the last dose of STZ, blood glucose was measured to verify that the animals were diabetic, and the mice were divided into two groups of 5 animals each, one group receiving Compound AH (250 mg/kg) daily by oral gavage, and the other receiving vehicle (0.75% hydroxypropylmethylcellulose, a suspending agent, in water). […] Blood samples were taken periodically for determination of blood glucose concentrations, and body weights were also recorded.
Body weights and blood glucose, triglyceride and cholesterol concentrations 14 weeks after the beginning of drug treatment are shown in Table 1.

NOD mice = assay: Incidence of spontaneous diabetes and mortality in NOD mice; type: in vivo; settings: 200 mg/kg/day oral, seven months
Procedure: A substantial proportion of NOD (“non-obese diabetic”) mice develop insulin-dependent diabetes as a consequence of spontaneous autoimmune destruction of pancreatic islet cells. Two groups of 20 NOD mice (6 weeks old) were treated daily with either oral Vehicle (0.4 ml of 0.75% hydroxypropyl methylcellulose in water; HPMC) or Compound AH (200 mg/kg/day) suspended in HPMC. The incidence of mortality due to spontaneous development of severe insulin-dependent diabetes was monitored over a period of seven months. At the end of this time, 13/20 mice treated with vehicle had died of uncontrolled diabetes, whereas only 5/20 mice treated with Compound AH had died.

[4] = tested on: mice with lethal insulin-dependent diabetes; assay: Survival of mice with lethal insulin-dependent diabetes (single dose streptozotocin); type: in vivo, Balb/C mice; settings: 250 mg/kg/day oral gavage
Procedure: Female Balb/C mice (14 weeks old) were treated with a single dose of streptozotocin (175 mg/kg i.p.) to induce severe insulin-dependent diabetes. Seven days later, mice were divided into three treatment groups: Compound AH, pioglitazone, and vehicle. Mice were treated daily via oral gavage, and survival was monitored over time.

[5] = streptozotocin diabetic Balb/C mice, 250 mg/kg daily oral gavage, 14 weeks

Row | SMILES | % Reduction vs Control [1] | Blood Glucose after 6 hours [1] | cumulative mortality [2] | blood glucose concentrations ([3]; 250 mg/kg daily oral, after several weeks of treatment) | metabolic abnormalities associated with insulin-dependent diabetes ([3]; oral treatment, 250 mg/kg daily) | Body Weight [3, 5] | Cholesterol [3, 5] | Glucose [3, 5] | Triglycerides [3, 5] | mortality due to spontaneous severe insulin-dependent diabetes (NOD mice) | body weights of survivors at 12 weeks [4] | Survivors (Survival at 12 weeks) ([4]; STZ 175 mg/kg i.p. Balb/C mice)
1 | O=C(O)CCC(=O)c1ccc(OCc2ccccc2F)cc1 [Compound AA, 4-(4-(2-Fluorobenzyloxy)phenyl)-4-oxobutyric acid] | −18.5 ± 8.4% | 242 ± 25 mg/dL | 5/20 |  |  |  |  |  |  |  |  | 
2 | O=C(O)CCC(=O)c1ccc(OCc2c(F)cccc2F)cc1 [Compound AH, 4-(4-(2,6-Difluorobenzyloxy)phenyl)-4-oxobutyric acid] | −24.9 ± 3.7% | 223 ± 11 mg/dL |  | began to decrease toward baseline | significant amelioration | 21.7 ± 0.8 g | 82 ± 2 mg/dL | 207 ± 12 mg/dL | 62 ± 7 mg/dL | 5/20 | recovered and were maintained in the normal range | 4/5
